Source: PubChem BioAssay AID1918939 (Molecular Pharmacology Branch, DTP, NCI, 2023)

Test system: 653999-131-R-J2-PDC complex spheroid viability
Assay: Anticancer human tumor 653999-131-R-J2-PDC patient-derived lung adenocarcinoma cell line growth inhibition
Conditions: for IC50: curve of first compound; for viability, T/C: stronger effect = lower value
Outline: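 Multicellular complex spheroids of tumor cells with human endothelial cells (HUVEC) and mesenchymal stem cells; the LSD1 inhibitor iadademstat was combined with standard-of-care or investigational agents. Top concentration at or near clinical Cmax, half-log dilutions; final DMSO ≤0.25%.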

[1] = second compound 0.1 µM, first compound 0.0316 µM
[2] = second compound 0.1 µM, first compound 0.1 µM
[3] = second compound 0.1 µM, first compound 0.316 µM
[4] = second compound 0.1 µM, first compound 1 µM
[5] = second compound 0.1 µM, first compound 3.16 µM
[6] = second compound 0.1 µM, first compound 10 µM
[7] = second compound 0.316 µM, first compound 0.0316 µM
[8] = second compound 0.316 µM, first compound 0.1 µM
[9] = second compound 0.316 µM, first compound 0.316 µM
[10] = second compound 0.316 µM, first compound 1 µM
[11] = second compound 0.316 µM, first compound 3.16 µM
[12] = second compound 0.316 µM, first compound 10 µM
[13] = second compound 1 µM, first compound 0.0316 µM
[14] = second compound 1 µM, first compound 0.1 µM
[15] = second compound 1 µM, first compound 0.316 µM
[16] = second compound 1 µM, first compound 1 µM
[17] = second compound 1 µM, first compound 3.16 µM
[18] = second compound 1 µM, first compound 10 µM
[19] = second compound 3.16 µM, first compound 0.0316 µM
[20] = second compound 3.16 µM, first compound 0.1 µM
[21] = second compound 3.16 µM, first compound 0.316 µM
[22] = second compound 3.16 µM, first compound 1 µM
[23] = second compound 3.16 µM, first compound 3.16 µM
[24] = second compound 3.16 µM, first compound 10 µM
[25] = second compound 10 µM, first compound 0.0316 µM
[26] = second compound 10 µM, first compound 0.1 µM
[27] = second compound 10 µM, first compound 0.316 µM
[28] = second compound 10 µM, first compound 1 µM
[29] = second compound 10 µM, first compound 3.16 µM
[30] = second compound 10 µM, first compound 10 µM
[31] = second compound 0.1 µM, first compound 0.00316 µM
[32] = second compound 0.1 µM, first compound 0.01 µM
[33] = second compound 0.316 µM, first compound 0.00316 µM
[34] = second compound 0.316 µM, first compound 0.01 µM
[35] = second compound 1 µM, first compound 0.00316 µM
[36] = second compound 1 µM, first compound 0.01 µM
[37] = second compound 3.16 µM, first compound 0.00316 µM
[38] = second compound 3.16 µM, first compound 0.01 µM
[39] = second compound 10 µM, first compound 0.00316 µM
[40] = second compound 10 µM, first compound 0.01 µM
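Further: spheroids exposed to agents for seven days before readout.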

| Structure (SMILES) | IC50 (second compound 0.1 µM) [nM] | IC50 (second compound 0.316 µM) [nM] | IC50 (second compound 1 µM) [nM] | IC50 (second compound 3.16 µM) [nM] | IC50 (second compound 10 µM) [nM] | viability, T/C [1] [%] | viability, T/C [2] [%] | viability, T/C [3] [%] | viability, T/C [4] [%] | viability, T/C [7] [%] | viability, T/C [8] [%] | viability, T/C [9] [%] | viability, T/C [10] [%] | viability, T/C [13] [%] | viability, T/C [14] [%] | viability, T/C [15] [%] | viability, T/C [16] [%] | viability, T/C [19] [%] | viability, T/C [20] [%] | viability, T/C [21] [%] | also measured |
| --- | --- | --- | --- | --- | --- | --- | --- | --- | --- | --- | --- | --- | --- | --- | --- | --- | --- | --- | --- | --- | --- |
| CC(C)c1c(-c2ccccc2)nc2c(C#N)c[nH]n2c1=O + NC1CC1c1ccc(-c2cccc(O)c2)cc1 | > 10000 | > 10000 | > 10000 | > 10000 | > 10000 | 87.3 | 96.5 | 89.1 | 76.9 | 84 | 83.7 | 90.9 | 74.8 | 73.1 | 87.2 | 86.1 | 77.8 | 84.2 | 72.5 | 80.2 | viability, T/C [5]: 80.1%; viability, T/C [6]: 80.5%; viability, T/C [11]: 64.2%; viability, T/C [12]: 66.2%; viability, T/C [17]: 66.7%; viability, T/C [18]: 72.2%; viability, T/C [22]: 68.7%; viability, T/C [23]: 77.5%; viability, T/C [24]: 76.8%; viability, T/C [25]: 80.8%; viability, T/C [26]: 73.8%; viability, T/C [27]: 77.4%; viability, T/C [28]: 76.5%; viability, T/C [29]: 68.9%; viability, T/C [30]: 65.6% |
| CC1COCCN1c1cc(-c2ccnn2C)c2ccnc(-c3ccn[nH]3)c2n1 (stereo not given) + NC1CC1c1ccc(-c2cccc(O)c2)cc1 | 5.31 | < 3.16 | < 3.16 | < 3.16 | < 3.16 | 44.3 | 29.7 | 42.7 | 45.7 | 36.7 | 36.6 | 36.1 | 48.5 | 36.8 | 32.7 | 31 | 36.3 | 36.5 | 28.8 | 36.1 | viability, T/C [31]: 52%; viability, T/C [32]: 50%; viability, T/C [33]: 47.7%; viability, T/C [34]: 44.4%; viability, T/C [35]: 45.5%; viability, T/C [36]: 47%; viability, T/C [37]: 49.5%; viability, T/C [38]: 45.5%; viability, T/C [22]: 39.7%; viability, T/C [39]: 47.5%; viability, T/C [40]: 46.6%; viability, T/C [25]: 39.5%; viability, T/C [26]: 29%; viability, T/C [27]: 29.7%; viability, T/C [28]: 34.7% |
| COc1ccc([C@@H](O)c2cc(-c3ncnc4cc(N5CCOCC5)ccc34)c(F)cc2Cl)nn1 + NC1CC1c1ccc(-c2cccc(O)c2)cc1 | 2810 | 1250 | 972 | 1130 | 968 | 79.2 | 84.6 | 72.1 | 55 | 74.1 | 86.5 | 65.8 | 51.1 | 85.6 | 74.3 | 70.2 | 49.3 | 77.4 | 71.5 | 63.2 | viability, T/C [5]: 54.1%; viability, T/C [6]: 28.5%; viability, T/C [11]: 40.7%; viability, T/C [12]: 26.5%; viability, T/C [17]: 31.9%; viability, T/C [18]: 24.4%; viability, T/C [22]: 49.5%; viability, T/C [23]: 39.4%; viability, T/C [24]: 22.6%; viability, T/C [25]: 71.2%; viability, T/C [26]: 70.6%; viability, T/C [27]: 58.2%; viability, T/C [28]: 53.3%; viability, T/C [29]: 33%; viability, T/C [30]: 26.1% |
| O=C(C=Cn1cnc(-c2cc(C(F)(F)F)cc(C(F)(F)F)c2)n1)NNc1cnccn1 + NC1CC1c1ccc(-c2cccc(O)c2)cc1 | 14.8 | 6.9 | < 3.16 | < 3.16 | < 3.16 | 47.5 | 38.8 | 39 | 29.2 | 44.3 | 34.9 | 37.2 | 31.8 | 43 | 34.2 | 27.2 | 27.4 | 38.8 | 41.1 | 30 | viability, T/C [31]: 53.4%; viability, T/C [32]: 53.9%; viability, T/C [33]: 54%; viability, T/C [34]: 48.3%; viability, T/C [35]: 47.8%; viability, T/C [36]: 51.5%; viability, T/C [37]: 46.4%; viability, T/C [38]: 45.8%; viability, T/C [22]: 24.8%; viability, T/C [39]: 49.5%; viability, T/C [40]: 48.8%; viability, T/C [25]: 39.5%; viability, T/C [26]: 39.6%; viability, T/C [27]: 33.7%; viability, T/C [28]: 27% |
| Nc1ncn(C2CC(O)C(CO)O2)c(=O)n1 (stereo not given) + NC1CCC(NC2CC2c2ccccc2)CC1 | > 1000 | > 1000 | > 1000 | > 1000 | > 1000 | 91.4 | 69 | 68.9 | 70.7 | 87.5 | 82.7 | 75.8 | 64.4 | 86.9 | 75.1 | 81.8 | 62 | 94.2 | 81.4 | 77.4 | viability, T/C [31]: 102%; viability, T/C [32]: 89.1%; viability, T/C [33]: 93.3%; viability, T/C [34]: 105%; viability, T/C [35]: 92.1%; viability, T/C [36]: 86.5%; viability, T/C [37]: 87.1%; viability, T/C [38]: 87.6%; viability, T/C [22]: 78%; viability, T/C [39]: 93.5%; viability, T/C [40]: 99.3%; viability, T/C [25]: 85.8%; viability, T/C [26]: 86.6%; viability, T/C [27]: 73.3%; viability, T/C [28]: 82.5% |
